Data published in ChEMBL document CHEMBL3885881, “DrugMatrix”.

Species on record: Rattus norvegicus
Test: DrugMatrix - Regimen: Daily Repeat
Type: toxicity, organism-based, Sprague-Dawley
Design: regimen Daily Repeat, gender Male, age 6-8 weeks
Settings: in vivo, po, route oral GAVAGE, vehicle .5 % CMC; for BASOPHIL / EOSINOPHIL / ERYTHROCYTE COUNT / HEMATOCRIT / HEMOGLOBIN / LEUKOCYTE COUNT / LYMPHOCYTE / MEAN CORPUSCULAR HEMOGLOBIN / MEAN CORPUSCULAR HEMOGLOBIN CONCENTRATION / MEAN CORPUSCULAR VOLUME / MONOCYTE / NEUTROPHIL / PLATELET COUNT: tissue Blood; for ALANINE AMINOTRANSFERASE / ALBUMIN / ALKALINE PHOSPHATASE / ASPARTATE AMINOTRANSFERASE / BLOOD UREA NITROGEN / CHLORIDE / CHOLESTEROL / CREATINE PHOSPHOKINASE / CREATININE / GLUCOSE / PHOSPHORUS / POTASSIUM / SODIUM / TOTAL BILIRUBIN / TOTAL PROTEIN: tissue Plasma
[1] = 300 mg/kg, 120 h, dose level Low, time 5 day
[2] = 1500 mg/kg, 72 h, dose level High, time 3 day
[3] = 1500 mg/kg, 120 h, dose level High, time 5 day

O=C1CCc2cc(OCCCCc3nnnn3C3CCCCC3)ccc2N1 [CILOSTAZOL]
BASOPHIL [1]: 1.17%
EOSINOPHIL [1]: 0.37%
ERYTHROCYTE COUNT [1]: 7.17 x10E6/uL
HEMATOCRIT [1]: 46.5%
HEMOGLOBIN [1]: 14.43 G/DL
LEUKOCYTE COUNT [1]: 13.79 x10E3/uL
LYMPHOCYTE [1]: 85.57%
MEAN CORPUSCULAR HEMOGLOBIN [1]: 20.2 pg
MEAN CORPUSCULAR HEMOGLOBIN CONCENTRATION [1]: 31.07 G/DL
MEAN CORPUSCULAR VOLUME [1]: 64.9 fL
MONOCYTE [1]: 2.3%
NEUTROPHIL [1]: 9.6%
PLATELET COUNT [1]: 1545 x10E3/uL
ALANINE AMINOTRANSFERASE [1]: 41 u/L
ALBUMIN [1]: 3.77 G/DL
ALKALINE PHOSPHATASE [1]: 365.67 u/L
ASPARTATE AMINOTRANSFERASE [1]: 63 u/L
BLOOD UREA NITROGEN [1]: 14.67 mg/dL
CHLORIDE [1]: 106.67 MEQ/L
CHOLESTEROL [1]: 67.33 mg/dL
CREATINE PHOSPHOKINASE [1]: 135 u/L
CREATININE [1]: 0.67 mg/dL
GLUCOSE [1]: 167 mg/dL
PHOSPHORUS [1]: 12.53 mg/dL
POTASSIUM [1]: 7.53 MEQ/L
SODIUM [1]: 151.33 MEQ/L
TOTAL BILIRUBIN [1]: 0.43 mg/dL
TOTAL PROTEIN [1]: 6.77 G/DL
BASOPHIL [2]: 0.53%
EOSINOPHIL [2]: 0.27%
ERYTHROCYTE COUNT [2]: 6.95 x10E6/uL
HEMATOCRIT [2]: 45.23%
HEMOGLOBIN [2]: 14.2 G/DL
LEUKOCYTE COUNT [2]: 13.97 x10E3/uL
LYMPHOCYTE [2]: 82.9%
MEAN CORPUSCULAR HEMOGLOBIN [2]: 20.43 pg
MEAN CORPUSCULAR HEMOGLOBIN CONCENTRATION [2]: 31.4 G/DL
MEAN CORPUSCULAR VOLUME [2]: 65.13 fL
MONOCYTE [2]: 2.43%
NEUTROPHIL [2]: 13.1%
PLATELET COUNT [2]: 1348.33 x10E3/uL
ALANINE AMINOTRANSFERASE [2]: 34.67 u/L
ALBUMIN [2]: 3.77 G/DL
ALKALINE PHOSPHATASE [2]: 340.33 u/L
ASPARTATE AMINOTRANSFERASE [2]: 60.33 u/L
BLOOD UREA NITROGEN [2]: 12 mg/dL
CHLORIDE [2]: 95 MEQ/L
CHOLESTEROL [2]: 65.33 mg/dL
CREATINE PHOSPHOKINASE [2]: 141 u/L
CREATININE [2]: 0.5 mg/dL
GLUCOSE [2]: 178.33 mg/dL
PHOSPHORUS [2]: 11.9 mg/dL
POTASSIUM [2]: 6.77 MEQ/L
SODIUM [2]: 140.33 MEQ/L
TOTAL BILIRUBIN [2]: 0.43 mg/dL
TOTAL PROTEIN [2]: 6.67 G/DL
BASOPHIL [3]: 0.83%
EOSINOPHIL [3]: 0.37%
ERYTHROCYTE COUNT [3]: 7 x10E6/uL
HEMATOCRIT [3]: 45.1%
HEMOGLOBIN [3]: 13.87 G/DL
LEUKOCYTE COUNT [3]: 10.98 x10E3/uL
LYMPHOCYTE [3]: 80.03%
MEAN CORPUSCULAR HEMOGLOBIN [3]: 19.8 pg
MEAN CORPUSCULAR HEMOGLOBIN CONCENTRATION [3]: 30.67 G/DL
MEAN CORPUSCULAR VOLUME [3]: 64.47 fL
MONOCYTE [3]: 2.53%
NEUTROPHIL [3]: 15.27%
PLATELET COUNT [3]: 1161 x10E3/uL
ALANINE AMINOTRANSFERASE [3]: 45 u/L
ALBUMIN [3]: 3.67 G/DL
ALKALINE PHOSPHATASE [3]: 377 u/L
ASPARTATE AMINOTRANSFERASE [3]: 66.33 u/L
BLOOD UREA NITROGEN [3]: 12 mg/dL
CHLORIDE [3]: 106.67 MEQ/L
CHOLESTEROL [3]: 66.67 mg/dL
CREATINE PHOSPHOKINASE [3]: 130 u/L
CREATININE [3]: 0.6 mg/dL
GLUCOSE [3]: 184.33 mg/dL
PHOSPHORUS [3]: 12.83 mg/dL
POTASSIUM [3]: 7.27 MEQ/L
SODIUM [3]: 151.33 MEQ/L
TOTAL BILIRUBIN [3]: 0.4 mg/dL
TOTAL PROTEIN [3]: 6.6 G/DL
